Laboratory results from US11241455B2, “Methods of treating disease by metabolic control of T-cell differentiation” (The J. David Gladstone Institutes, a testamentary trust …, priority 2016, dated 2022).

Key:
[1] = test system: differentiating TH17 cells; assay: TH17 differentiation of CD4 naïve T cells (IL17F-RFP/FOXP3-GFP reporter or intracellular staining of IL-17 and FOXP3); assay type: cell-based, mouse; details: compound added after 24 hours of TH17 differentiation, analyzed on day 6
Protocol: CD4 naïve T cells (CD4+CD25-CD62^highCD44^low) were obtained from interleukin (IL)-17F-red fluorescent protein (RFP)/FOXP3-green fluorescent protein (GFP) mice, which were characterized previously, or wild-type C57/BL6 mice, by cell sorting. 0.4 million cells were plated into 48 wells coated with anti-mouse CD3 (clone 145-2C11, eBioscience) […] and anti-mouse CD28 (clone 37.51, eBioscience) (1 μg/ml). The differentiation media for these naïve T cells was as follows: 0.5 ng/ml (or indicated) transforming growth factor (TGF) β, 200 U/ml mouse IL-2, 2 μg/ml anti-interferon (IFN) γ and 2 μg/ml anti-mouse IL4 for differentiation into iTreg cells; and 2.5 ng/ml TGFβ, 10 ng/ml mouse IL-1β, 10 ng/ml mouse IL-6, 10 ng/ml mouse IL-23, 2 μg/ml anti-mouse IFNγ, and anti-mouse IL-4 for differentiating into TH17 cells. The cells were supplemented with new medium at day 4. In cases in which small-molecule compounds were present, the fresh medium containing the same concentration of compounds was used. When necessary, the individual metabolite was added into the T-cell culture 6 hours later after initial cell plating. On day 6, the cells were analyzed for IL17F-RFP and FOXP3-GFP or the cells were collected and restimulated for 4-6 hours with PMA, inomycin, and Golgi-stop for intracellular staining in absence of indicated compounds.
To identify small molecules that regulate cell-fate switching of TH17/iTreg cells and to further understand the regulation of the TH17/iTreg balance, 10,000 individual small molecules were phenotypically screened using CD4 naïve T cells from IL-17F-RFP/FOXP3-GFP mice. The naïve T cells were cultured under optimal TH17 differentiation conditions and compounds that could reprogram TH17 differentiation toward iTreg cell fate were identified using the reporter readout. Briefly, after TH17 differentiation for 24 hours, compounds were added to TH17 culture, and the treatment was continued for an additional 5 days before the cells were analyzed for IL17F-RFP and FOXP3-GFP expression by high-throughput fluorescence-activated cell sorting (FACS) (FIG. 5a). […] This effect of reprogrammed differentiation was further confirmed by intracellular immunostaining of IL-17 and FOXP3 (FIG. 1a).

[2] = test system: differentiating TH17 cells; assay: U-13C glutamine flux analysis in differentiating TH17 cells; assay type: cell-based, mouse; details: 2 mM U-13C-glutamine for 4 hours
Protocol: CD4 naïve T cells, differentiating TH17 or iTreg cells (68 hours) were incubated with fresh media prior to labeling. The cells were then cultured for 4 hours at 37° C. with medium where the glutamine was replaced with the corresponding stable isotope label: 2 mM U-^13C glutamine or 2 mM ^15N-α-glutamine for 4 hours at 37° C. The cells were quickly collected and quickly washed with phosphate buffer saline (PBS), pelleted, and snap frozen in liquid nitrogen. The frozen samples were kept in −80° C. until extraction. Cell extracts were prepared by first adding 80/20 MeOH/H2O at −60° C. to the frozen pellets and collecting the supernatant after centrifugation at 4° C. The extracted samples were analyzed by high-resolution liquid-chromatography-mass spectrometry. Unlabeled glutamine-fed cells were used as background. For negative mode metabolomics: Cell extracts obtained as described above were analyzed for relative abundance of metabolites by liquid chromatography-triple quadrupole mass spectrometry (LC-MS) using scheduled selective reaction monitoring (SRM) for each metabolite of interest, with the detector set to negative mode. Prior to injection, dried extracts were reconstituted in LC-MS grade water. LC separation was achieved by reverse-phase ion-pairing chromatography.

Structure (SMILES): NOCC(=O)O [AOA, (aminooxy)-acetic acid]
- reprogramming of TH17 induction to iTreg cells (IL17F-expressing and FOXP3-expressing cells) [1]: reprogram TH17 induction to iTreg cells in a dose-dependent manner
- de novo synthesis of α-KG and 2-HG (U-13C labeled, normalized to U-13C-glutamine) [2]: inhibited
